In patent US10576144B2, “Amino acid and peptide conjugates and conjugation process” (AUCKLAND UNISERVICES LIMITED, priority 2014, dated 2020):
Residues, ends and D or L forms follow the SMILES beside them. *: point of attachment. Ethyl(2-palmitoyloxy) = CCCCCCCCCCCCCCCC(=O)OCC*; Palmitoyl = CCCCCCCCCCCCCCCC(=O)*

What was measured:
CD8+ T cell clone 1C11 = assay: CD8+ T cell clone activation assay, NY-ESO-1 118-143 constructs, autologous LCL as APC; format: cell-based, human
Protocol: Human CD4+ and CD8+ T cell clones were maintained at a concentration of 1-3×10^6/ml in RPMI 1640 supplemented with Glutamax, Penicillin/Streptomycin and 5% v/v human serum (“RS5”, all reagents from Life Technologie). Media was refreshed 50% v/v twice weekly. RS5 for CD4+ T cell clones was supplemented with IL-7 and IL-21, and RS5 for CD8+ T cell clones was supplemented with IL-7+IL-15 (all cytokines from PeproTech, used at a final concentration of 5 ng/ml).
Epstein-Barr Virus (“EBV”)-producing B95-8 MM cells were grown in RPMI 1640 supplemented with Glutamax, Penicillin/Streptomycin and 10% v/v fetal bovine serum (“RF10”, all reagents from Invitrogen) in T75 flasks (BD Biosciences). EBV-containing medium was collected and centrifuged to pellet non-adherent cells, and the EBV-containing supernatant then filter-sterilised (0.22 μm). 10×10^6 donor Peripheral Blood Mononuclear Cells (“PBMC”) were suspended in 1.5 ml RF10 in aT25 flask (BD Biosciences). 2.5 ml B95-8 cell culture supernatant was added and cells incubated for 2 hours. 1 ml fresh RF10 containing 5% v/v Phytohemaglutanin (“PHA”, Gibco) was then added (1% v/v final concentration). Flasks were monitored for outgrowth of B cell LCL, typically over 4-6 weeks, with transfer to a T75 flask (BD Biosciences) when required. LCL lines were cryopreserved and working stocks maintained in RF10 at 0.5-1.5×10^6/ml.
Donor LCL or MoDC (also referred to herein as antigen presenting cells or “APC”) were incubated for 16 h in RF10+ peptide/construct at desired concentration. In samples where Pam3Cys (“P3C”) and peptide moieties were both present but unconjugated, LCL were pre-treated with P3C for 30 minutes, and media then refreshed with RF10 containing both P3C and peptide. Untreated APC were incubated in RF10 only. APC/construct incubation was performed in 96 well plates (U-bottom, BD Biosciences) or in 48wp (flat bottom, BD Biosciences) depending of the nature of the assay and the numbers of APC required per treatment. Following incubation, APC were washed with RPMI 1640 4 times, to remove unbound construct/P3C. […]

CD4+ T cell clone 1D6 = assay: CD4+ T cell clone activation assay, NY-ESO-1 118-143 constructs, autologous LCL as APC; format: cell-based, human; settings: LCL pulsed with construct; 147 tested +/−P3C; 116 and 115 titratable (FIG. 13)
Protocol: Epstein-Barr Virus (“EBV”)-producing B95-8 MM cells were grown in RPMI 1640 supplemented with Glutamax, Penicillin/Streptomycin and 10% v/v fetal bovine serum (“RF10”, all reagents from Invitrogen) in T75 flasks (BD Biosciences). EBV-containing medium was collected and centrifuged to pellet non-adherent cells, and the EBV-containing supernatant then filter-sterilised (0.22 μm). 10×10^6 donor Peripheral Blood Mononuclear Cells (“PBMC”) were suspended in 1.5 ml RF10 in aT25 flask (BD Biosciences). […] Flasks were monitored for outgrowth of B cell LCL, typically over 4-6 weeks, with transfer to a T75 flask (BD Biosciences) when required. […]
Data acquisition was performed using a BD FACSAria II with FACSDiva software, and data analysis was performed using FlowJo software (Treestar). Data were presented as the median fluorescence intensity (MFI)+SD of CD25 and CD134 expression on live clonal cells. […]

human monocytes = assay: Activation of human monocytes in whole blood (CD80 up-regulation, flow cytometry); format: cell-based
Protocol: 100 μl of heparinised whole blood (WB) was incubated with 100 nM, 1 μM and 10 μM of each compound, in duplicate, and incubated overnight at 37° C. in a 5% CO2 humidified incubator. […] EMC Microcollections) was used as a positive control. To detect activation of monocytes, WB samples were stained with anti-CD14-FITC, anti-HLA-DR-Alexa700, anti-CD80-PE-Cy7, anti-CD40-PE, anti-CD86-APC, anti-CD16-APC-Cy7 (all from Biolegend) for 20 mins at RT, protected from light. Following incubation, 2 ml of BD FACS lyse (BD Biosciences) was added, incubated for 15 mins at RT, then washed twice with ice cold wash buffer (PBS, 1% Human Serum). Data acquisition was performed on a BD FACS Aria II (Becton Dickinson) and analysed using FlowJo software version 7.6.5 (TreeStar). CD80 receptor expression on monocytes was detected by gating on CD14+ HLADR+ cells.

## 147 (VPGVLLKEFTVSGNILTIRLTAADHR; C-terminal acid) [compound 147]
CD8+ T cell clone 1C11; 100 nM
  T cell activation: No or negligible T cell activation
CD8+ T cell clone 1C11; 1 μM, with exogenous P3C
  T cell activation: 75%
CD8+ T cell clone 1C11; 1 μM, without exogenous P3C
  T cell activation: 60%
CD4+ T cell clone 1D6
  response of clone 1D6: does not respond

## CCCCCCCCCCCCCCCC(=O)SC[C@H](N)C(=O)N[C@@H](CO)C(=O)N[C@@H](CCCCN)C(=O)N[C@@H](CCCCN)C(=O)N[C@@H](CCCCN)C(=O)N[C@@H](CCCCN)C(N)=O [compound 20] (H-C(Palmitoyl)SKKKK-NH2)
Human monocytes; in three donors
  potency of CD80 up-regulation compared to 22 and 26: lower potency than 22 and 26

## CCCCCCCCCCCCCCCC(=O)OCCSC[C@H](NC(C)=O)C(=O)N[C@@H](CO)C(=O)N[C@@H](CCCCN)C(=O)N[C@@H](CCCCN)C(=O)N[C@@H](CCCCN)C(=O)N[C@@H](CCCCN)C(N)=O [compound 22] (Ac-C(Ethyl(2-palmitoyloxy))SKKKK-NH2)
Human monocytes; 10 μM dose, in most donors
  potency of CD80 up-regulation compared to Pam3CSK4: equivalent potency to Pam3CSK4
Human monocytes; all doses tested (100 nM, 1 μM, 10 μM), whole blood of five donors, overnight
  up-regulation of expression of CD80 on monocytes: strongly upregulated expression of CD80
